“And” between values parts separate entries of the source, which are not always exact repeats. Equal values may be shown once. Toxic doses and inconclusive results are not listed.
Test system: BDF1 mice, intracerebral L1210 leukemia, survival T/C
Assay: NCI In Vivo Anticancer Drug Screen. Data for tumor model L1210 Leukemia (intracerebral) in B6D2F1 (BDF1) mice
Details: endpoint: mean survival time, higher = longer survival
Summary of the method: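 Mice carrying transplanted tumour were dosed with compound; survival was recorded and expressed as treated-group value (T) divided by vehicle-control value (C).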

[1] = dose: 14.0 mg/kg/injection, schedule: Q01DX001 (ip), vehicle: saline

In the case of O=C(Nc1ccc(C2=NCCN2)cc1)c1ccc(C(=O)Nc2ccc(C3=NCCN3)cc2)c(Cl)c1, the T/C (dose: 12.0 mg/kg/injection, schedule: Q01DX015 (ip), vehicle: carboxymethylcellulose (CMC)) is reported as 112 % of control, the T/C (dose: 12.5 mg/kg/injection, schedule: Q01DX Z (ip), vehicle: carboxymethylcellulose (CMC)) is reported as 114 % of control and the T/C (dose: 18.0 mg/kg/injection, schedule: Q01DX015 (ip), vehicle: carboxymethylcellulose (CMC)) is reported as 120 % of control. For the same compound, the T/C (dose: 25.0 mg/kg/injection, schedule: Q01DX Z (ip), vehicle: carboxymethylcellulose (CMC)) was 108 % of control, the T/C (dose: 27.0 mg/kg/injection, schedule: Q01DX015 (ip), vehicle: carboxymethylcellulose (CMC)) was 118 % of control and the T/C (dose: 37.5 mg/kg/injection, schedule: Q01DX Z (ip), vehicle: carboxymethylcellulose (CMC)) was 102 % of control. For the same compound, the T/C (dose: 48.0 mg/kg/injection, schedule: Q01DX001 (ip), vehicle: carboxymethylcellulose (CMC)) was 98 % of control, the T/C (dose: 48.4 mg/kg/injection, schedule: Q01DX001 (ip), vehicle: carboxymethylcellulose (CMC)) was 102 % of control and the T/C (dose: 50.0 mg/kg/injection, schedule: Q01DX Z (ip), vehicle: carboxymethylcellulose (CMC)) was 96 % of control. The T/C (dose: 74.0 mg/kg/injection, schedule: Q01DX001 (ip), vehicle: carboxymethylcellulose (CMC)) was 107 % of control and 100 % of control.

In the case of CC12CC3(C)CC(C)(C1)CC(NC(=O)N(CCF)N=O)(C2)C3, the T/C (dose: 82.0 mg/kg/injection, schedule: Q01DX001 (ip), vehicle: other) is reported as 113 % of control.

With CC(=O)OC1CCC(NC(=O)N(CCF)N=O)CC1 (stereo not given) the T/C (dose: 24.0 mg/kg/injection, schedule: Q01DX001 (ip), vehicle: other) was 276 % of control, the T/C (dose: 32.0 mg/kg/injection, schedule: Q01DX001 (oral), vehicle: other) was 516 % of control and the T/C (dose: 36.0 mg/kg/injection, schedule: Q01DX001 (ip), vehicle: other) was 509 % of control.

With O=NN(CCCl)C(=O)NC1[C@H](O)CCC[C@@H]1O (stereo not given in full) the T/C (dose: 2.6 mg/kg/injection, schedule: Q01DX001 (ip), vehicle: saline) was 123 % of control, the T/C (dose: 4.0 mg/kg/injection, schedule: Q01DX001 (ip), vehicle: saline) was 112 % of control and the T/C (dose: 9.0 mg/kg/injection, schedule: Q01DX001 (ip), vehicle: saline) was 156 % of control. For the same compound, the T/C [1] was 388 % of control and the T/C (dose: 22.0 mg/kg/injection, schedule: Q01DX001 (ip), vehicle: saline) was 324 % of control.

In the case of CCOC(=O)C1(NC(=O)N(CCCl)N=O)CCCC1, the T/C (dose: 74.0 mg/kg/injection, schedule: Q01DX001 (ip), vehicle: other) is reported as 116 % of control, the T/C (dose: 108.0 mg/kg/injection, schedule: Q01DX001 (ip), vehicle: other) is reported as 119 % of control and the T/C (dose: 110.0 mg/kg/injection, schedule: Q01DX001 (ip), vehicle: other) is reported as 118 % of control. For the same compound, the T/C (dose: 168.0 mg/kg/injection, schedule: Q01DX001 (ip), vehicle: other) was 152 % of control, the T/C (dose: 250.0 mg/kg/injection, schedule: Q01DX001 (ip), vehicle: other) was 174 % of control and 275 % of control and the T/C (dose: 370.0 mg/kg/injection, schedule: Q01DX001 (ip), vehicle: other) was 152 % of control. The T/C (dose: 375.0 mg/kg/injection, schedule: Q01DX001 (ip), vehicle: other) was 124 % of control.

In the case of O=NN(CCF)C(=O)NCCF, the T/C (dose: 3.5 mg/kg/injection, schedule: Q01DX001 (ip), vehicle: saline) is reported as 160 % of control, the T/C (dose: 5.0 mg/kg/injection, schedule: Q01DX001 (ip), vehicle: saline) is reported as 208 % of control and the T/C (dose: 7.0 mg/kg/injection, schedule: Q01DX001 (ip), vehicle: saline) is reported as 254 % of control. For the same compound, the T/C (dose: 8.0 mg/kg/injection, schedule: Q01DX001 (ip), vehicle: saline) was 284 % of control and the T/C [1] was 303 % of control.

For OCCN1CCN(CC/C=C2/c3ccccc3Sc3ccc(C(F)(F)F)cc32)CC1, the T/C (dose: 3.12 mg/kg/injection, schedule: Q04DX003 (ip), vehicle: saline) was 113 % of control, the T/C (dose: 6.25 mg/kg/injection, schedule: Q04DX003 (ip), vehicle: saline) was 111 % of control and the T/C (dose: 12.5 mg/kg/injection, schedule: Q04DX003 (ip), vehicle: saline) was 113 % of control. The T/C (dose: 25.0 mg/kg/injection, schedule: Q04DX003 (ip), vehicle: saline) was 100 % of control.

With COc1cc(NS(C)(=O)=O)ccc1Nc1c2cccc(C)c2nc2c(C)cccc12 the T/C (dose: 6.25 mg/kg/injection, schedule: Q01DX009 (ip), vehicle: water) was 111 % of control, the T/C (dose: 6.25 mg/kg/injection, schedule: Q01DX009 (sc), vehicle: water) was 98 % of control and the T/C (dose: 12.5 mg/kg/injection, schedule: Q01DX009 (sc), vehicle: water) was 101 % of control. For the same compound, the T/C (dose: 25.0 mg/kg/injection, schedule: Q01DX001 (ip), vehicle: saline) was 101 % of control, the T/C (dose: 25.0 mg/kg/injection, schedule: Q01DX009 (ip), vehicle: water) was 114 % of control and the T/C (dose: 25.0 mg/kg/injection, schedule: Q01DX009 (sc), vehicle: water) was 103 % of control. The T/C (dose: 50.0 mg/kg/injection, schedule: Q01DX001 (ip), vehicle: saline) was 107 % of control, the T/C (dose: 50.0 mg/kg/injection, schedule: Q01DX009 (sc), vehicle: water) was 104 % of control and the T/C (dose: 100.0 mg/kg/injection, schedule: Q01DX001 (ip), vehicle: saline) was 110 % of control. For the same compound, the T/C (dose: 200.0 mg/kg/injection, schedule: Q01DX001 (ip), vehicle: saline) was 112 % of control.

Reference: PubChem BioAssay AID252 (DTP/NCI, 2004)
